Values of other authors as cited in patent US20230330298A1 (priority 2022, published 2023).

tested on: bacterial spores

Q: With `CCCCCCCCCCCCCCCCCC(=O)OCC(O)CO` (stereo not shown) [glycerol monostearate] as the compound, how does the “Sporicidal effect (in words)” value read?
A: kill bacterial spores

Q: For `CCCCCCCCCCCC(=O)OCC(O)CO` (stereo not shown) [Monolaurin], which “Sporicidal effect (in words)” value is on record?
A: kill bacterial spores

tested on: Clostridium botulinum spores

Q: Which “Sporicidal Minimal Inhibitory Concentration” value does the source give for `O=Cc1ccc2c(c1)OCO2` [Piperonal] here?
A: >2500 mM

Q: And the “Sporostatic Minimal Inhibitory Concentration” value?
A: 0.6 mM

Q: With `O=Cc1ccccc1` [Benzaldehyde] as the compound, how does the “Sporicidal Minimal Inhibitory Concentration” value read?
A: 625 mM

Q: What about the “Sporostatic Minimal Inhibitory Concentration” value of the same compound?
A: 0.6 mM

Q: With `COc1cc(C=O)ccc1O` [Vanillin] as the compound, how does the “Sporicidal Minimal Inhibitory Concentration” value read?
A: 125 mM

Q: What about the “Sporostatic Minimal Inhibitory Concentration” value of the same compound?
A: 0.6 mM

Q: For `O=CC=Cc1ccccc1` [Cinnamaldehyde], which “Sporicidal Minimal Inhibitory Concentration” value is on record?
A: >2500 mM

Q: And the “Sporostatic Minimal Inhibitory Concentration” value?
A: 9.8 mM
